The values below come from patent US6423689B1, “Peptidyl calcium channel blockers” (Warner-Lambert Company, priority 1997, dated 2002).

Usually IC50 stands for the point on the concentration scale where inhibition reaches its midpoint. By inhibition is commonly meant the share of the control response that was lost under treatment. Low readings indicate a weak effect, high ones a strong effect.

For assay [1], the system named is K+ channels in superior cervical ganglion (SCG) neurons. Put plainly: Whole-cell voltage clamp, K+ current in SCG neurons. Format: cell-based, rat. In outline:
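Acutely dissociated (trypsin) SCG neurons under whole-cell voltage clamp, external NaCl/KCl/HEPES buffer pH 7.4, K-gluconate/KCl pipette. From holding potential −65 to −55 mV, 35 msec steps every 10 sec to 0 mV (peak Na+ current) or +50 mV (sustained K+ current); compounds perfused locally to steady-state block, reported as percent inhibition of control.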

The target of assay [2] is T1, L-type Ca2+ channels in A10 cells (Rattus norvegicus, UniProt P22002).
T1 construct: which endogenously expresses L-type calcium channels; host or cells: A10 rat aortic smooth muscle cells
T1 sequence (P22002 whole entry): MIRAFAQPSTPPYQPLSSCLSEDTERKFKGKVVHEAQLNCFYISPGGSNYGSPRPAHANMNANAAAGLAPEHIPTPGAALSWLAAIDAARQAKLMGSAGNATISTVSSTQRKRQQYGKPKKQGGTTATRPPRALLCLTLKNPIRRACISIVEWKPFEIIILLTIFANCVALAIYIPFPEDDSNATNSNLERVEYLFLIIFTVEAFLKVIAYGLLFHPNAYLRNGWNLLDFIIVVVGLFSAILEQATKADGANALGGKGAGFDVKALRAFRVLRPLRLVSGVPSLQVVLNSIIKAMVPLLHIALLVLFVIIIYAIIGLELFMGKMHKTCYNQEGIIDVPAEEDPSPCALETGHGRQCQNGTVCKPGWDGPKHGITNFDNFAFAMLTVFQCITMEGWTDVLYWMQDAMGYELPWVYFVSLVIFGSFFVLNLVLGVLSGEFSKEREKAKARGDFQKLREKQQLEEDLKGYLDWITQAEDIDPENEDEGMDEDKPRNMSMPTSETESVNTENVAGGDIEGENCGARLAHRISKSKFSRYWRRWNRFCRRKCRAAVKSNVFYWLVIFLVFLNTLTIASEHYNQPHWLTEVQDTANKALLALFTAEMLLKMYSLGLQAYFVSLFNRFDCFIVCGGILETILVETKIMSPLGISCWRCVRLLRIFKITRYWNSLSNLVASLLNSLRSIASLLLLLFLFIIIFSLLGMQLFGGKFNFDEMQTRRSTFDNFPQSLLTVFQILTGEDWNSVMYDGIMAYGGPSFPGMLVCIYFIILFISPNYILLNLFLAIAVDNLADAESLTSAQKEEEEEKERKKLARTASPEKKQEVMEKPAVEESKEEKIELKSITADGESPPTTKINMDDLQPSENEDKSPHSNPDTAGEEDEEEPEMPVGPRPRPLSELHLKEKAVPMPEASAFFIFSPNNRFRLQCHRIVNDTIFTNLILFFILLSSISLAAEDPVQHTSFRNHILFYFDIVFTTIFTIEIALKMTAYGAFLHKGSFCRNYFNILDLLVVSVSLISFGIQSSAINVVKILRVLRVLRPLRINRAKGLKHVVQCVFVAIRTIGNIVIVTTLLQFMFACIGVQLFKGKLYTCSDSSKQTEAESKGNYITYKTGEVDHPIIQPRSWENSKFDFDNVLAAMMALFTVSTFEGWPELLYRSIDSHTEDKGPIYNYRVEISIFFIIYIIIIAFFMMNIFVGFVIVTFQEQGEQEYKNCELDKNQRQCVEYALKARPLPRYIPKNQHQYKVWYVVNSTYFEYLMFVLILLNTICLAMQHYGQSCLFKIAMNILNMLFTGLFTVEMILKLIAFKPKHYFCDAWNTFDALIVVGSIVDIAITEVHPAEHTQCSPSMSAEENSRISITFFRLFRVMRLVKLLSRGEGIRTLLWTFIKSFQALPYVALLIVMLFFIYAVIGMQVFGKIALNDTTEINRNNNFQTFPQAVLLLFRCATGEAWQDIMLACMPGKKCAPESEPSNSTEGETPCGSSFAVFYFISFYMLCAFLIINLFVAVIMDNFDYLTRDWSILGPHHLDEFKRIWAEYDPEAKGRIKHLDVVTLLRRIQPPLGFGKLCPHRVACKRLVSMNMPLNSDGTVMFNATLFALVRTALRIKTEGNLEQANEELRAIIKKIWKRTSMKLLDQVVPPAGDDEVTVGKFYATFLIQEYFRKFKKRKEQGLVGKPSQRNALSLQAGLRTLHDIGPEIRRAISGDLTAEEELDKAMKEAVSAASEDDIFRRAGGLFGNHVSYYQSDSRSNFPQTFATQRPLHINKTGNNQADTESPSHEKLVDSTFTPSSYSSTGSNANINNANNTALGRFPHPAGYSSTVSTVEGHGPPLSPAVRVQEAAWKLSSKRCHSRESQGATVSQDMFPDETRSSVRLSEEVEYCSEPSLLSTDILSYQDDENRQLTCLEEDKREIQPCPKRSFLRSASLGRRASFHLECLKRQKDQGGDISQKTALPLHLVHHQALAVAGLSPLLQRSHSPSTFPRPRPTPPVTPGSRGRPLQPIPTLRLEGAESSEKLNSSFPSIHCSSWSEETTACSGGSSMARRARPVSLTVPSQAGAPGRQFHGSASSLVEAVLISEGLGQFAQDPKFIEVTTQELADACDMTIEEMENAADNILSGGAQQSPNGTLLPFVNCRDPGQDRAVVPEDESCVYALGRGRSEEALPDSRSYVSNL
T1 sequence (P54290 25-944 partner limits assumed): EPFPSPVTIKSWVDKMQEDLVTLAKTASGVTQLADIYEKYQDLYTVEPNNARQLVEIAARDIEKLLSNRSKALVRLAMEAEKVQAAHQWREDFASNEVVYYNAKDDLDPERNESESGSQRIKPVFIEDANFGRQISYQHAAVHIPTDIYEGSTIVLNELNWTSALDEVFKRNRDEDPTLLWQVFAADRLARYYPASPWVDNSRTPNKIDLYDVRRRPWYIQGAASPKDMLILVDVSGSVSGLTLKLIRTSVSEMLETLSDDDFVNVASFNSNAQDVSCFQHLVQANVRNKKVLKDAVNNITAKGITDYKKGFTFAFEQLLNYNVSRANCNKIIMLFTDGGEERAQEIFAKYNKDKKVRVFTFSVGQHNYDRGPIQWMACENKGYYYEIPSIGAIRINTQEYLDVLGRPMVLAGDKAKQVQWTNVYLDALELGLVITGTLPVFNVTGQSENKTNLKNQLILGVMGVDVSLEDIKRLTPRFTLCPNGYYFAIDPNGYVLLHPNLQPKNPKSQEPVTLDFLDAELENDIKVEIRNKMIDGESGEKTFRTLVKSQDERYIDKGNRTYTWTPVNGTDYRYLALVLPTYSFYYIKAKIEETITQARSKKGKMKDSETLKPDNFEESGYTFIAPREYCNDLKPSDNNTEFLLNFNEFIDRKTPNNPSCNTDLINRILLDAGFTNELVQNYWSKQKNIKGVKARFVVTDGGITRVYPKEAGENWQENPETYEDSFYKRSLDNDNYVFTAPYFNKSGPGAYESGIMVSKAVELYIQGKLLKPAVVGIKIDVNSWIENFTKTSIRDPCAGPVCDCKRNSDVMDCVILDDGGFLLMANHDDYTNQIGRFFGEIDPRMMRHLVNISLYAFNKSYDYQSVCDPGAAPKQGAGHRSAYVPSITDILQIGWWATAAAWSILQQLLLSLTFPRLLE
T1 sequence (P54290 945-1091 partner limits assumed): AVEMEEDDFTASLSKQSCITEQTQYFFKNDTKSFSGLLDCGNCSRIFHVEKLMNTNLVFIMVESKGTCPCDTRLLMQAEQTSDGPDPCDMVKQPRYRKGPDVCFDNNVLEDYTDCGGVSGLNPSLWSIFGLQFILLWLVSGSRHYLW
T1 sequence (P54287 whole entry partner): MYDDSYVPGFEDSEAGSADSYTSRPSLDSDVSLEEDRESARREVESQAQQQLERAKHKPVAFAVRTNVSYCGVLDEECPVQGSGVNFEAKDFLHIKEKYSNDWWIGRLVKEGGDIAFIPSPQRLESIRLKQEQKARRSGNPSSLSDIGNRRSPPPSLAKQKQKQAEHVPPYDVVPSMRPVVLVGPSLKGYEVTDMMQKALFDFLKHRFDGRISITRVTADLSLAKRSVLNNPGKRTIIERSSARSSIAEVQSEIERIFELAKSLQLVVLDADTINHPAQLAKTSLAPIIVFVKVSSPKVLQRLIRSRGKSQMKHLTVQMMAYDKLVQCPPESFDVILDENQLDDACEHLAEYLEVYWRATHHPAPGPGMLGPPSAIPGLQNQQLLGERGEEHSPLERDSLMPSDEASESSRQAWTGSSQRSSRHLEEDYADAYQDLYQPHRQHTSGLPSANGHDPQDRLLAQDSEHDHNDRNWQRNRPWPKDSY
Put plainly: Inhibition of L-type calcium flux in A10 cells (FLIPR). The assay is classed as cell-based. As to the method: Measurement of L-type Ca^2+ Channel Blocking Potencies of Compounds in A10 cells
Calcium flux through voltage-sensitive calcium channels was assessed by time-resolved monitoring of the fluorescence of pre-loaded calcium-sensitive dyes using FLIPR, a fluorescent image plate reader (Molecular Devices Co.). The A10 smooth muscle cell line derived from embryonic thoracic aorta of the DBIX rat (ATCC, CRL-1476) which endogenously expresses L-type calcium channels. The growth media for A10 cells was Ham's F12/DME high glucose (Irvine Scientific, 9052), supplemented with 20% fetal bovine serum (HyClone Labs, A-1115-L), and 1% each of L-glutamine and antibiotic-antimycotic (same source as above).
Cells were grown to confluency and replated on black-sided 96-well plates (Costar, 3603) for use in FLIPR. Two days after replating, growth media was removed and cells were loaded at 37° C. with 100 μL media containing 1 μM Oregon Green 488 Bapta-1 dye (Molecular Probes, O-6807) for 1 to 3 hours. The dye-containing media was then washed away with buffer (composition in mM: 1.25 CaCl2, 1.2 MgSO4, 11 glucose, 10 HEPES, 3.0 KCl, 137.0 NaCl, pH 7.4 with Tris base) in a Denley Cellwash (Labsystems, CW018B). The residual buffer volume was adjusted to 50 μL. A 5 minute drug-pre-incubation period at 35° C. was initiated when 50 μL of drug-containing buffer was pipetted into the cell plate with the 96-well pipettor integrated in the FLIPR apparatus. Fluorescent counts were monitored at 20 second intervals for 360 seconds, beginning 60 seconds prior to the delivery of drug-containing buffer. Following drug addition, 100 μL aliquots of a high K^+, depolarizing stimulus (composition in mM: 1.25 CaCl2, 1.2 MgSO4, 11 glucose, 10 HEPES, 140.0 KCl, pH 7.4 with Tris base) were added to each well and fluorescence was monitored at 1 second intervals for 120 seconds, beginning 10 seconds prior to the stimulus addition. CCD camera exposure time was 0.4 seconds, laser excitation was at 488 nm with a power of 0.2-0.5W, and a 510 to 560 nm bandpass interference filter preceded the camera.
Data was analyzed as a summation of fluorescent counts above basal during the stimulation period (an approximation of area under the curve), after normalizing the data with a spatial uniformity correction (for variations in laser illumination and cell density) and a negative control correction (zero calcium increase defined as the fluorescence reading in the presence of saturating pharmacologic block of the respective calcium channel). Drug effects were expressed as percent inhibition of fluorescence from an average of 8 K^+-stimulated wells which were pre-treated in the drug incubation period with buffer only.
In the A10 cells, the pharmacologic agent used to define zero calcium influx was nitrendipine (RBI, N-144), at a final concentration of 1.0×10^−6 M.

Assay [3] has as its target T2, N-type Ca2+ channels in superior cervical ganglion (SCG) neurons (Rattus norvegicus, UniProt Q02294).
T2 construct: from tissue
Briefly: Whole-cell voltage clamp, N-type Ca2+ current in SCG neurons. Format: cell-based. As to conditions: for IC50: read-out: Inhibition of N-type Ca2+ Current IC50. In outline: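 Whole-cell voltage clamp of acutely trypsin-dissociated rat SCG neurons, with TEA/choline external solution (2 mM Ca2+) and Cs-methanesulfonate pipette solution. Currents evoked by 150 ms steps to +20 mV from −65 to −55 mV holding, every 40 s; compounds applied locally, effect as % inhibition of control amplitude.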

Turning to `CC(C)(C)OC(=O)[C@H](Cc1ccc(OCc2ccccc2)cc1)NC(=O)CNC(=O)N1CCCCCC1` (stereo in doubt) [Example 8, [S-(R*,R*)]-2-{2-[(Azepane-1-carbonyl)-amino]-acetylamino}-3-(4-benzyloxy-phenyl)-propionic acid tert-butyl ester], in assay [1], the “Inhibition of K+ Current, % Inhibition at 10 μM” value was 72%. Moreover, the IC50 came out at 180 nM in assay [2] and 1920 nM in assay [3]. The “Inhibition of N-type Ca2+ Current, % Inhibition at 10 μM” value in assay [3] (10 μM) was determined as 86%.
`CC(C)C[C@H](NC(=O)N1CCCCCC1)C(=O)N[C@@H](Cc1ccc(OCc2ccccc2)cc1)C(=O)OC(C)(C)C` [Example 1]: in assay [1], the “Inhibition of K+ Current, % Inhibition at 10 μM” value is 31%. In addition, the concentration for half-maximal inhibition (IC50) in assay [1] (read-out: Inhibition of K+ Current IC50) amounted to 24000 nM; in assay [2], 1720 nM; in assay [3], 1270 nM. Further, 10 µM produced 68% inhibition in assay [3] (10 μM).
For the compound `CC(C)(C)OC(=O)[C@H](Cc1ccc(OCc2ccccc2)cc1)NC(=O)[C@H](Cc1ccccc1)NC(=O)N1CCCCCC1` [Example 16], in assay [1], the “Inhibition of K+ Current, % Inhibition at 10 μM” value is recorded as 20%. Besides, in assay [2], the half-inhibitory concentration (IC50) is 280 nM. This compound also returned an inhibition at 10 µM in assay [3] (10 μM) of 19%.
The like results for `CC(C)C[C@H](NC(=O)N1CCCCCC1)C(=O)N[C@@H](Cc1ccc(OCc2ccccc2)cc1)C(N)=O` [Example 21, [S-(R*,R*)]-Azepane-1-carboxylic acid {1-[2-(4-benzyloxy-phenyl)-1-carbamoyl-ethylcarbamoyl]-3-methyl-butyl}-amide] were, in that order, 56%, 1600 nM and 45%.
Consider `CC(C)C[C@H](NC(=O)N1CCCCCC1)C(=O)N[C@@H](Cc1ccc(OCc2ccccn2)cc1)C(=O)OC(C)(C)C` [Example 25, [S-(R*,R*)]-2-{2-[(Azepane-1-carbonyl)-amino]-4-methyl-pentanoylamino}-3-[4-(pyridin-2-ylmethoxy)-phenyl]-propionic acid tert-butyl ester], for which the “Inhibition of K+ Current, % Inhibition at 10 μM” value in assay [1] was determined as 51%. For the same compound, the IC50 was determined as 1700 nM in assay [2] and 5330 nM in assay [3]. Further, the inhibition at 10 µM in assay [3] (10 μM) worked out at 66%.
Consider `CC(C)C[C@H](NC(=O)N1CCCCCC1)C(=O)N[C@@H](Cc1ccc(OCc2ccncc2)cc1)C(=O)OC(C)(C)C` [Example 26, [S-(R*,R*)]-2-{2-[(Azepane-1-carbonyl)-amino]-4-methyl-pentanoylamino}-3-[4-(pyridin-4-ylmethoxy)-phenyl]-propionic acid tert-butyl ester], for which the “Inhibition of K+ Current, % Inhibition at 10 μM” value in assay [1] is 41%. Moreover, the IC50 in assay [2] was found to be 3000 nM. Further, in assay [3] (10 μM), the inhibition at 10 µM came to 58%.
Turning to `CC(C)C[C@H](NC(=O)N1CCCCCC1)C(=O)N[C@@H](Cc1ccc(C#CC2(O)CCCCC2)cc1)C(=O)NC(C)(C)C` [Example 138, [S-(R*,R*)]-Azepane-1-carboxylic acid (1-({-tert-butylcarbamoyl-2-[4-(1-hydroxy-cyclohexylethynyl)-phenyl]-ethylcarbamoyl}-3-methyl-butyl)-amide], the “Inhibition of K+ Current, % Inhibition at 10 μM” value in assay [1] is listed as 43%. Also, the IC50 in assay [2] was 1600 nM. In assay [3] (10 μM), this compound showed an inhibition at 10 µM of 17%.
For the compound `CC(C)C[C@H](NC(=O)N1CCCCCC1)C(=O)N[C@@H](Cc1ccc(C=Cc2ccccc2)cc1)C(=O)NC(C)(C)C` [Example 141, [S-(R*,R*)]-Azepane-1-carboxylic acid {1-[1-tert-butylcarbamoyl-2-(4-styryl-phenyl)-ethylcarbamoyl]-3-methyl-butyl}-amide], the “Inhibition of K+ Current, % Inhibition at 10 μM” value in assay [1] was 42%. For the same compound, the IC50 in assay [2] is 410 nM. For the same compound, in assay [3] (10 μM), the inhibition at 10 µM was 39%.
As to `CC(C)C[C@H](NC(=O)N1CCCCCC1)C(=O)N[C@@H](Cc1ccc(OCc2ccccc2)cc1)C(=O)NCCCn1ccnc1` [Example 237, [S-(R*,R*)]-Azepane-1-carboxylic acid {(1-[2-(4-benzyloxy phenyl)-1-(3-imidazol-1-yl-propylcarbamoyl)-ethylcarbamoyl]-3-methyl-butyl}-amide], the half-maximal inhibitory concentration (IC50) in assay [2] stood at 2200 nM. Besides, in assay [3] (10 μM), at 10 µM the inhibition was 79%.
